The record followed here is ChEMBL document CHEMBL1201862, “PubChem BioAssay data set” (2004).

The test system of one test is Streptococcus. Put plainly: GAS UMAA2166 growth inhibition – luminescence, BacTiterGlo, counter-screen for streptokinase expression inhibitor project, dose response (AID 1915).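 Note: potency for reduction of bacterial viability or growth.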 In kind it is functional, organism-based. In general terms: A counterscreen serves to expose hits that act by an unwanted route or on another target.
Test [1] can be described thus: NIH3T3 cell viability loss, ATP content – CellTiter-Glo luminescence, cherry-pick, set 2, cytotoxicity control for HSP40 inhibitor project, dose response (AID 624265). In kind it is functional.
A further test is described as follows: cells. In kind it is functional.
Test [2] addresses G-protein coupled receptor 55 (Homo sapiens, UniProt Q9Y2T6). Put plainly: inhibition of LPI-stimulated GPR55 beta-arrestin translocation – imaging, U2OS, beta-arrestin-GFP, LPI agonist, primary screen (AID 2013).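 Note: antagonist potency measured as reduced agonist-driven arrestin aggregation.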 In kind it is functional.
Test [3] can be described thus: THP-1 cell cytotoxicity, dose response, cytotoxicity control for non-replicating M. tuberculosis project (AID 489025). In kind it is functional.
The nature of test [4]: Luminescence Cell-Based Dose Confirmation HTS to Identify Activators of 5'UTR Stem-Loop Driven Alpha-Synuclein mRNA Translation in H4 Neuroglioblastoma Cells. [Related pubchem assays: 1829 (Project Summary), 1814 (Primary HTS)]. In kind it is functional.
Test [5] is described as follows: Vero E6 cell cytotoxicity, dose response, cytotoxicity control for non-replicating M. tuberculosis project, secondary assay (AID 492998). In kind it is functional, VeroE6. To be noted: Vero C1008.
Test [6] in a line: microbe, parasite or virus in culture. Conditions: Mycobacterium tuberculosis. In kind it is functional.
Another test concerns the target T1, Streptokinase A (Streptococcus pyogenes serotype M1, UniProt P10520).
T1 sequence (P10520 whole entry): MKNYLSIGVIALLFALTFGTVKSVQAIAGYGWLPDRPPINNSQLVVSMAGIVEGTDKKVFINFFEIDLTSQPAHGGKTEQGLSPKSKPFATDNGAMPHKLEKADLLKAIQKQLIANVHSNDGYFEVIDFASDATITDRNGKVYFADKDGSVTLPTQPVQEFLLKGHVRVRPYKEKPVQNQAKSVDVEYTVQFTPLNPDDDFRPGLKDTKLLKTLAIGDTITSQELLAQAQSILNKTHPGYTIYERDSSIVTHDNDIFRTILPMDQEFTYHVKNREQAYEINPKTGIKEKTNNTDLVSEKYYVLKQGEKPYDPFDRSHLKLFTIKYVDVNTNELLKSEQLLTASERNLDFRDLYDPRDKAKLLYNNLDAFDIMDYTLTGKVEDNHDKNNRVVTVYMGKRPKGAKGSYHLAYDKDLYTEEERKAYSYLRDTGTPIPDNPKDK
The test can be described thus: viability-normalized secreted streptokinase activity reduction – plasminogen activation absorbance, OD405, dose response (AID 1914).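 Note: secreted streptokinase activity via plasminogen activation per viability signal from cell pellet.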 In kind it is functional, Streptococcus pyogenes M1 GAS.

Test [7] in a line: Luminescence Cell-Based Dose Response HTS to Identify Activators of Luciferase Translation or Activity in H4 […] Cells. [Related pubchem assays: 1829 (Project Summary), 1814 (Primary HTS)]. In kind it is functional.
The test system of a further test is H4. The test can be described thus: Luminescence Cell-Based Dose Response HTS to Identify Activators of 5'UTR Stem-Loop Driven Prion Protein mRNA Translation in H4 Neuroglioblastoma Cells. [Related pubchem assays: 1829 (Project Summary), 1814 (Primary HTS)]. In kind it is functional. Conditions: Homo sapiens.
Test [8] in a line: rescue of ΔF508 CFTR function, airway epithelium – human bronchial epithelial cells, plate reader, cherry-pick, two tests, dose response (AID 743267). In kind it is functional, cell-based.
Test [9] has as its system Streptococcus sp. 'group A'. Put plainly: Streptococcus pyogenes SK(-)GAS viability under kanamycin – luminescence, BacTiterGlo, confirmation, counter-screen for streptokinase expression inhibitor project, dose response (AID 1900). In kind it is functional, organism-based.
The nature of test [10]: HepG2 cell cytotoxicity, dose response, cytotoxicity control for non-replicating M. tuberculosis project (AID 489018). To be noted: Mycobacterium tuberculosis. In kind it is functional.
Test [11] is described as follows: viability loss in HepG2 hepatoma cells – cell-based, ATP luminescence, cherry-pick, activator set 2, cytotoxicity control, dose response (AID 1053143). In kind it is functional.
The target of a further test is Beta-galactosidase (Escherichia coli, UniProt Q8VNN2). Put plainly: Dose response counterscreen for EBI2 assay utilizing the enzyme, b-galactosidase. In kind it is functional.
Test [12] is described as follows: COV434 cell viability loss – plate reader, dry powder, SA7, cytotoxicity control for PAX8 inhibitor project, dose response (AID 743145). In kind it is functional, cell-based.
A short description of test [13]: IGROV1 cell killing – plate reader, dry powder samples, PAX8 inhibitor project, dose response (AID 743043). In kind it is functional, cell-based. Conditions: IGROV-1.
Test [14] is described as follows: inhibitors acting on PAX2 in cells – cell-based, plate reader, dry powder samples, selectivity assay for PAX8 inhibitor project, dose response (AID 743048).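 Note: HEK293 cells carrying a WT1 promoter luciferase reporter driven by expressed Pax2; potency is for inhibition of Pax2 driven reporter signal.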 In kind it is functional.
Test [15] can be described thus: OVCAR-3 cell viability loss – plate reader, dry powder samples, PAX8 inhibitor project, dose response (AID 743044). In kind it is functional, cell-based.
Test [16] in a line: PAX8-dependent cell viability loss – plate reader, dry powder, dose response (AID 743049). In kind it is functional, cell-based.
Test [17] can be described thus: OV-90 cell viability loss – plate reader, dry powder, SA8, PAX8 inhibitor project, dose response (AID 743149). In kind it is functional, cell-based.
In the next test the target is Paired box protein Pax-8 (Homo sapiens, UniProt Q06710). The test can be described thus: PAX8 transcriptional activity inhibition in RMG-I – RMG-I cells, luciferase, cherry-pick, dose response (AID 687027).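 Note: luciferase reporter driven by Pax8 target thyroperoxidase promoter measured by SteadyGlo luminescence.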 In kind it is functional, cell-based.
The nature of test [18]: COV362 cell viability loss – plate reader, dry powder, SA12, cytotoxicity control for PAX8 inhibitor project, dose response (AID 743144). In kind it is functional, cell-based.
A short description of test [19]: OVCAR4 cell viability loss – plate reader, dry powder, SA11, cytotoxicity control for PAX8 inhibitor project, dose response (AID 743150). In kind it is functional, cell-based. To be noted: OVCAR-4.
Test [20] has as its target Photoreceptor-specific nuclear receptor (Homo sapiens, UniProt Q9Y5X4). In kind it is functional, cell-based.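 Note: CHO-S cells with Gal4-NCOR and VP16-NR2E3 two-hybrid luciferase reporter.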
The target of a further test is Beta Lactamase (Pseudomonas aeruginosa, UniProt Q932Y6). The test can be described thus: BLA reporter interference, concentration series – BLA reporter cells, FRET fluorescence, artefact control for TLR9-MyD88 binding inhibitor project, dose response (AID 588341).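 Note: cell based assay in CHO-K1 cells stably expressing beta-lactamase.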 In kind it is cell-based.
Test [21] in a line: Late stage assay provider counterscreen for TLR9 inhibitors: absorbance-based cell-based MTT cytotoxicity assay. In kind it is functional.
Another test deals with CHO. The test can be described thus: CHO cell viability loss, potency – luminescence, cytotoxicity control for TLR9-MyD88 binding inhibitor project, dose response (AID 588339).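 Note: CHO cells stably coexpressing TLR9 and MyD88 fusions from primary screen; compound exposure lasted 48 hours before viability readout.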 In kind it is functional, cell-based, hamster. To be noted: Cricetulus griseus.
Test [22] can be described thus: blockers of FN fibrillogenesis by fibroblasts – AH1F cells, Alexa488-FN fluorescence, cherry-picks, dose response (AID 1035475). In kind it is functional, cell-based.
In test [23] the target is Potassium channel subfamily K member 9 (Homo sapiens, UniProt Q9NPC2). Put plainly: KCNK9 flux blockade, concentration-response – cell-based, FluxOR thallium flux, selectivity assay for TASK1 inhibitor project, SAR follow-up (AID 652211).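 Note: potency is for inhibitors of the channel.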 In kind it is functional.
Test [24] can be described thus: anti-trypanosomal activity in BESM host cells – imaging, CA-I/72 strain, bovine embryo skeletal muscle, dry powder, dose response (AID 651885). In kind it is functional, cell-based.
Test [25] concerns the target Kappa-type opioid receptor (Homo sapiens, UniProt P41145). Put plainly: kappa opioid receptor antagonism potency – cell-based, fluorescence, dose response, late-stage follow-up (AID 652032). In kind it is functional.

Active and inactive are the calls of the source. Some results are limits rather than exact numbers.

One may read the EC50 as the concentration needed to bring the measured effect to its halfway point. For orientation: IC50 means the concentration that gives 50% inhibition. By AC50 is commonly meant the midpoint of the concentration-response curve, whichever way the signal moves.

Chain of Kappa-type opioid receptor (P41145 whole entry): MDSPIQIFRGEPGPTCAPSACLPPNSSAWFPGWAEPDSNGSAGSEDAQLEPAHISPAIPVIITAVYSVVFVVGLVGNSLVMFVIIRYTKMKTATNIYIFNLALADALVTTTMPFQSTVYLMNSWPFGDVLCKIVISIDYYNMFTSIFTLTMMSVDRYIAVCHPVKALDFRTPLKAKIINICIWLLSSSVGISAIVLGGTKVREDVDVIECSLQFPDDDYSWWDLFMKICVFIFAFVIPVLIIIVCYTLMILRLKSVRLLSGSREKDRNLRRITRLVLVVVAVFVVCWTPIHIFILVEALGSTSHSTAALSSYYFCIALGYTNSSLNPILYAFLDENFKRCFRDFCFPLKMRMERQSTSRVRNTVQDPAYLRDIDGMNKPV
Chain of Beta-galactosidase (Q8VNN2 whole entry): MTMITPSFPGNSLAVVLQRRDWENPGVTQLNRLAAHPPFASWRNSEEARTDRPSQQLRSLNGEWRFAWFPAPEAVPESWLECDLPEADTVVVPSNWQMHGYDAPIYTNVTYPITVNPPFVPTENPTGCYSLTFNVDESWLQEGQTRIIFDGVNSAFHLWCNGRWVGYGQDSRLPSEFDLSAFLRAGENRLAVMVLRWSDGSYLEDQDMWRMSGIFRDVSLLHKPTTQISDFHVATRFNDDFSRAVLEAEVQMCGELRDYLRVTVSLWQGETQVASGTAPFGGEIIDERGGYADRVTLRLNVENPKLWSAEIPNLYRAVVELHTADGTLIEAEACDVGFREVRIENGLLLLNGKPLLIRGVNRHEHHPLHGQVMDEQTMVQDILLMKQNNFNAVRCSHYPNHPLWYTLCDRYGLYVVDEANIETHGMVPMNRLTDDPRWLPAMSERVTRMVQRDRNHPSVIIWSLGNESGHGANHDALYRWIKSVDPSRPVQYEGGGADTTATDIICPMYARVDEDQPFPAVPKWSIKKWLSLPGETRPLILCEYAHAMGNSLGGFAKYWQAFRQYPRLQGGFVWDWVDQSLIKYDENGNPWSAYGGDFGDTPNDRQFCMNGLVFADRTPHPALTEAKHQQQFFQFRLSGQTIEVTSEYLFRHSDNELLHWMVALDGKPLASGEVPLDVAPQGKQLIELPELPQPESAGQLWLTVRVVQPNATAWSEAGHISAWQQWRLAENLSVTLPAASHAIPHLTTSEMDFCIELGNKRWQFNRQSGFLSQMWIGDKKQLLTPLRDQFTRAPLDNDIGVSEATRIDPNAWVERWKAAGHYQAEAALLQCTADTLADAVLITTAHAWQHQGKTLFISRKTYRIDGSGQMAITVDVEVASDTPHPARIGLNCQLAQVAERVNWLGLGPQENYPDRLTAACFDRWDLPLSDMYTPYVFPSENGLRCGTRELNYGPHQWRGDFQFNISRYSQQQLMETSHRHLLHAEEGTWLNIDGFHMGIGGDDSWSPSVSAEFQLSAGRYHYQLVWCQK
Chain of Beta Lactamase (Q932Y6 whole entry): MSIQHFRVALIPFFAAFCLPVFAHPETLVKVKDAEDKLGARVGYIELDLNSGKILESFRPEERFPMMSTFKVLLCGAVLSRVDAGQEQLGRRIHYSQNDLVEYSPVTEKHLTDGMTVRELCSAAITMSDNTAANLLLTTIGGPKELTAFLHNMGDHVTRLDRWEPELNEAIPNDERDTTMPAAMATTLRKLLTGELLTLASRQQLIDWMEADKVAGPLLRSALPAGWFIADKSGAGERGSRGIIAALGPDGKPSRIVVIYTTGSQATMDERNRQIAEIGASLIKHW
Chain of Paired box protein Pax-8 (Q06710 whole entry): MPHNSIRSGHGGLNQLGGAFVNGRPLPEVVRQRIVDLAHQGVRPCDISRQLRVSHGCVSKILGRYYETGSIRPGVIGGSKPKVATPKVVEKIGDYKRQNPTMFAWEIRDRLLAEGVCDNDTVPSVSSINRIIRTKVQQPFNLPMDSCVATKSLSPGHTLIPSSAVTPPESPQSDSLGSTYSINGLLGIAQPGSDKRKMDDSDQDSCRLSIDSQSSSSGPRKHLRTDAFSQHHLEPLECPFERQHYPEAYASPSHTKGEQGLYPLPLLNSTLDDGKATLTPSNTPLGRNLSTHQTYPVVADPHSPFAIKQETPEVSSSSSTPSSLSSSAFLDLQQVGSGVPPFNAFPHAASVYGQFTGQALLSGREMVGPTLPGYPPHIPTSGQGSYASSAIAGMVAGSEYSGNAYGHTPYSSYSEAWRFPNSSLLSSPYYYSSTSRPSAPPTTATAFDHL
Chain of G-protein coupled receptor 55 (Q9Y2T6 whole entry): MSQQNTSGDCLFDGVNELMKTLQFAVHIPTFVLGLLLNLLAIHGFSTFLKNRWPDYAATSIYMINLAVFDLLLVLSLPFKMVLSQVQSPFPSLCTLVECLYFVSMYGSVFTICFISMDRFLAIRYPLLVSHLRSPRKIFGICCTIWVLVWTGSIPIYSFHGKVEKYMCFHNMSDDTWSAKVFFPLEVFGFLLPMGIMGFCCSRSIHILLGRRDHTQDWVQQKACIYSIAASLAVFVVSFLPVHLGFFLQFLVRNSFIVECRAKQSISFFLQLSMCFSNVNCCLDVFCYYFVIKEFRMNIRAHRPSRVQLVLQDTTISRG
Chain of Photoreceptor-specific nuclear receptor (Q9Y5X4 whole entry, the tested form may be a part): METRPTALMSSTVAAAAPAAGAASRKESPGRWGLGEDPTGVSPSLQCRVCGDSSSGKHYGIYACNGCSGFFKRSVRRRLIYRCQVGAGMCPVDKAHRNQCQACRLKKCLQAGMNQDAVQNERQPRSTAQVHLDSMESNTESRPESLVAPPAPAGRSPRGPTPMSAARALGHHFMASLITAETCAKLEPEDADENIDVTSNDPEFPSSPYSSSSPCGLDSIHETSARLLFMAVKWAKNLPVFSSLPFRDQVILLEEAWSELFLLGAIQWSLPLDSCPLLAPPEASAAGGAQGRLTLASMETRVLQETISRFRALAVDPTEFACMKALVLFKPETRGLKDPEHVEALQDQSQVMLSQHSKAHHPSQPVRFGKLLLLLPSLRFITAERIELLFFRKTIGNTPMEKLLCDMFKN
Chain of Potassium channel subfamily K member 9 (Q9NPC2 whole entry): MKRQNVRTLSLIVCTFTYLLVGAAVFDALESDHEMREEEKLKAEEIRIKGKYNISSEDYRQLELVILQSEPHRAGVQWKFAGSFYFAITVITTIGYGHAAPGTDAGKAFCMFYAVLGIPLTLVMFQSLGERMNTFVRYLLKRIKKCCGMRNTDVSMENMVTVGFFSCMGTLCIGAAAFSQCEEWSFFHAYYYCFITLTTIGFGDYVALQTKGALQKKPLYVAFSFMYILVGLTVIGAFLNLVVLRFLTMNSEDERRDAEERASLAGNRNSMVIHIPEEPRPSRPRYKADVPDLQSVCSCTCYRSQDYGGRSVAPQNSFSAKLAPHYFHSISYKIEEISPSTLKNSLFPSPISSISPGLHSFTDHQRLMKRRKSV

As for `NC(=O)N=Nc1c2nc3ccccc3[nH]c-2c2ccccc12`, the EC50 is > 150 µM (not active) in the test with Streptococcus; 13 µM (active) in test [4]; 46.2 µM (active) at Streptokinase A; > 120 µM (not active) in test [7]; > 120 µM (not active) in the test with H4; 7.71 µM (active) in [9]. The compound further came in with an AbsAC35_uM in [1] of 58.66 µM. In addition, the results for the IC50 (in the test “cells”; in [2]) were 11.1 µM (active) and 2.88 µM (active), respectively. The CC50 in test [3] was 23.5 µM (active); in [5] it was 11.9 µM (active); in test [6] it was 7.97 µM (active); in test [10], > 20 µM (active). For the same compound, the half-maximal activity concentration (AC50) in [8] was 8.41 µM (active).

With `CCC(=O)Nc1sc(C(=O)Nc2ccccc2)c(C)c1C(=O)OC`, the AC50 in [11] is 26 µM (active).

As for `O=C(c1cc(-c2cccs2)on1)N1CCN(C(c2ccccc2)c2ccccc2)CC1`, on Beta-galactosidase, the IC50 is > 80 µM (inactive). The AC50 was 80.1 µM (active) in [12]; 44.1 µM (active) in test [13]; 49.9 µM (active) in [14]; 60.2 µM (active) in [15]; 9.18 µM (active) in test [16]; > 100 µM (inactive) in test [17]. The AC50 was 0.733 µM (active) at Paired box protein Pax-8, 48.4 µM (active) in test [18] and 44.4 µM (active) in [19].

Regarding `O=S(=O)(/C=C/C=C/S(=O)(=O)c1ccccc1)c1ccccc1`, the half-maximal inhibitory concentration (IC50) in [20] was 1.61 µM (active); at Beta Lactamase, > 49.8 µM (inactive); in the test with CHO, 0.959 µM (active). In addition, in test [21], the CC50 is 0.59 µM (active).

For `CC(=O)Nc1cccc(-c2ccnc3c2CC(C)(C(=O)Nc2cccc(C(F)(F)F)c2)O3)c1` (stereo not drawn), the half-maximal activity concentration (AC50) in [22] was 22.7 µM (active).

Take `Cc1cccc(C(=O)Nc2cccc(NC(=O)c3ccco3)c2)c1`: in [23], the IC50 was 1.67 µM (active).

Consider `CC(C)N(C)C(=O)c1cccc(NC(=O)c2ccncc2)c1OCCCN(C)Cc1ccc(Cl)cc1`, for which the half-maximal inhibitory concentration (IC50) in test [24] was 0.385 µM (active).

Regarding `COC(=O)c1cc(Br)cnc1N1CCC(NC2CCCCC2)C(C)C1` (stereo not drawn), the half-maximal inhibitory concentration (IC50) in [25] is 0.075 µM (active).
